{"source": "patent US7645802B2", "about": "(Biovail Laboratories International SRL., priority 2005, dated 2010)", "key": {"[1]": {"assay": "moisture content by KF and pH (aq. 0.5%) of bupropion salts", "format": "physicochemical", "experimental": "The eight salts were first evaluated by HPLC, KF, pH and DSC for purity, water content, aqueous pH and possible polymorphs.\n(§1) The salts were analyzed by DSC (at 10° C./min from 30° C. up to 400° C.) and the pH (aq. 0.5%), and the moisture content by KF were also measured. The TGA was performed on the HCl, maleate, tosylate and HBr salts."}, "[2]": {"assay": "forced degradation stability study of bupropion salts in vials, 40 degrees C./75% RH, HPLC assay and impurities"}, "[3]": {"assay": "TGA of bupropion salts", "format": "physicochemical", "settings": "for residue (TGA): at 400° C.; for weight lost (TGA): from room temperature to 100° C.", "experimental": "2-5 mg of each salt was placed in an aluminium pan and covered with its lid. DSC was run for each sample at the rate of 10 degrees C./min (for HBr salt, different rates were used to investigate for polymorphs) from 30 degrees C. to 400 degrees C. TGA was also used for each of the HBr, HCl, maleate and tosylate salts.\nas §1"}, "[4]": {"test_system": "chemically-induced seizures (induced by pentylenetetrazole) in mice", "settings": "cited from earlier work"}, "[5]": {"settings": "after re-crystallization in acetonitrile/hexane or acetonitrile/EtOAc"}}}
{"compound": "Bupropion tosylate", "values": [{"measurement": "moisture content KF", "setting": "[1]; [5]", "result": 0.23, "unit": "%"}, {"measurement": "pH", "setting": "[1]; [5]", "result": 5.88}, {"measurement": "moisture content KF", "setting": "[1]; re-crystallized sample retested after two months", "result": 0.18, "unit": "%"}, {"measurement": "moisture content KF", "setting": "[1]; salt as received", "result": 1.71, "unit": "%"}, {"measurement": "pH of the aqueous solution of 0.5%", "setting": "[1]; salt as received", "result": 5.56}, {"measurement": "In IPA/EtOH, 852U77: order of impurity content", "setting": "[2]", "result": "fumarate > HBr ≈HCl ≈maleate ≈tosylate"}, {"measurement": "In IPA/EtOH, Total imp.: order of impurity content", "setting": "[2]", "result": "fumarate > maleate > HBr > HCl > tosylate"}, {"measurement": "In water, Total imp.: order of impurity content", "setting": "[2]", "result": "fumarate > HBr > HCl > tosylate > maleate"}, {"measurement": "residue (TGA)", "setting": "[3]", "result": 10.3, "unit": "%"}, {"measurement": "weight lost (TGA)", "setting": "[3]", "result": 1.3, "unit": "%"}]}
{"compound": "Br", "note": "[bromide]", "values": [{"measurement": "ED50 / therapeutic dose level against pentylenetetrazole-induced seizures", "setting": "[4]", "result": 910, "unit": "mg/kg"}]}
{"compound": "Bupropion maleate", "values": [{"measurement": "moisture content KF", "setting": "[1]; salt as received", "result": 0.10, "unit": "%"}, {"measurement": "pH of the aqueous solution of 0.5%", "setting": "[1]; salt as received", "result": 4.29}, {"measurement": "In IPA/EtOH, 3-CBZ: order of impurity content", "setting": "[2]", "result": "maleate > HBr > HCl > Fumarate"}, {"measurement": "In IPA/EtOH, 852U77: order of impurity content", "setting": "[2]", "result": "fumarate > HBr ≈HCl ≈maleate ≈tosylate"}, {"measurement": "In IPA/EtOH, Total imp.: order of impurity content", "setting": "[2]", "result": "fumarate > maleate > HBr > HCl > tosylate"}, {"measurement": "In water, 3-CBZ: order of impurity content", "setting": "[2]", "result": "HCl > HBr≈maleate≈fumarate"}, {"measurement": "In water, 852U77: order of impurity content", "setting": "[2]", "result": "fumarate > HBr > maleate > HCl"}, {"measurement": "In water, Total imp.: order of impurity content", "setting": "[2]", "result": "fumarate > HBr > HCl > tosylate > maleate"}, {"measurement": "thermally stable to at least (TGA)", "setting": "[3]", "result": "at least 150 °C"}, {"measurement": "residue (TGA)", "setting": "[3]", "result": "minimal residues"}, {"measurement": "weight lost (TGA)", "setting": "[3]", "result": 1.3, "unit": "%"}]}
{"compound": "[Br-].[Na+]", "note": "[sodium bromide]", "values": [{"measurement": "ED50 / therapeutic dose level against pentylenetetrazole-induced seizures", "setting": "[4]", "result": 910, "unit": "mg/kg"}]}
